Experiments:
Type in all cases: in vivo
writhing (mouse) = test: Writhing test (mouse), 60 minutes after peroral administration; settings: po, 1 h, orally, 60 minutes after administration, 50% of animals show no more than one writhing
Experimental: In carrying out the experiment there are used in each case 8 male mice (20-22 g) per dosage. 60 minutes after the oral administration of the test substance 10 ml/kg of the test solution is administered to the animals by intraperitoneal injection. After a latent period of 5 minutes, the number of animals in which during 5 minutes no more than one characteristic writhing symptom, that is, convulsive stretching movement of the body, occurs is registered. The ED 50 indicates the oral dosage in mg/kg at which 50% of the animals show no more than one writhing.
60 minutes after peroral administration

[1] = tested on: sympathetic nervous system; test: Central sympathetic-inhibitory activity (cats in urethane narcosis); settings: anaesthetized cat, i.v.; positive if sympathetic activity inhibited >30% for >30 minutes in blood pressure-lowering dosages
Text: The central sympathetic-inhibitory activity can be determined according to the following method:
(§1) The action of the test compounds on the activity in the sympathetic nervous system is investigated on cats in urethane narcosis. The preganglionic sympathetic activity is derived by means of biopolar platinum electrodes from the splanchnic nerve and the postganglionic sympathetic activity is derived from a nerve branch to the kidney according to the method of G. Hausler [Naunyn-Schmiedeberg's Arch. Pharmacol. 286, 97-111 (1974)]. Moreover, there is measured the arterial blood pressure from the femoral artery as well as the heart rate. The test substance is injected intravenously. When a test substance in blood pressure-lowering dosages inhibits the sympathetic activity during more than 30 minutes by more than 30%, then it is qualified as having "central sympathetic-inhibitory activity".

[2] = tested on: Spontaneously hypertensive rat; test: Cardiovascular activities: systolic blood pressure and heart rate in conscious spontaneously hypertensive rats (p.o.); settings: maximum variation from control
Experimental: The cardiovascular activities can be determined according to the following method:
The systolic blood pressure and the heart rate are measured several times on conscious, spontaneously hypertensive female rats before the administration of the subtance. Per dosage there are used 5 experimental animals with a body weight of about 300 g. The administration of substance is carried out by means of a stomach probe. Both parameters are measured 1, 3, 6 and 16 hours after the administration and the percentage variation from the control values is calculated. The systolic blood pressure is measured indirectly at the tail artery of the rate according to the method of Gerold et al. (Helv. Physiol. Acta 24, 58-69 (1966); Arzneimittelforschung 18, 1285-1287 (1968).
(§2) In the Table which follows, the results obtained with compounds A to H are compiled. The maximum percentage variations from the control values are given.

Anaesthetized cat = test: Blood pressure and heart rate in the anaesthetized cat (i.v.); settings: maximum variation from control
Experimental: as §1, §2

[3] = tested on: electrical stimulation of the dental pulp; test: Activity against an electrical stimulation of the dental pulp in apes, peroral; settings: after peroral administration
α-adrenergic receptor = test: Cancellation of the analgesia by the α-adrenergic receptor blocker yohimbine
opiate receptor = test: Cancellation of the analgesia by the opiate receptor blocker naloxone
[4] = tested on: morphine-antagonistic activity; test: Morphine-antagonistic activity

Structure (SMILES)	ED50 (writhing (mouse))	Central sympathetic-inhibitory activity [1]	Blood pressure, Δ% ([2]; 1.0 mg/kg (p.o.))	Heart rate, Δ% ([2]; 1.0 mg/kg (p.o.))	Blood pressure, Δ% ([2]; 3.0 mg/kg (p.o.))	Heart rate, Δ% ([2]; 3.0 mg/kg (p.o.))	Blood pressure, Δ% (Anaesthetized cat; 1.0 mg/kg (i.v.))	Heart rate, Δ% (Anaesthetized cat; 1.0 mg/kg (i.v.))	Blood pressure, Δ% (Anaesthetized cat; 3.0 mg/kg (i.v.))	Heart rate, Δ% (Anaesthetized cat; 3.0 mg/kg (i.v.))	Heart rate, Δ% (Anaesthetized cat; 10.0 mg/kg (i.v.))	Blood pressure, Δ% ([2]; 10.0 mg/kg (p.o.))	Heart rate, Δ% ([2]; 10.0 mg/kg (p.o.))	Blood pressure, Δ% (Anaesthetized cat; 10.0 mg/kg (i.v.))	other results
[O-][n+]1ccccc1CON1CCNC1=Nc1cccc(Cl)c1Cl [B, 2-([{2-[(2,3-Dichlorophenyl)imino]-1-imidazolidinyl}oxy]methyl)pyridine 1-oxide]	1.3 mg/kg	none	-4.1%	-11.8%	-7.8%	-8.4%	-5%	0%	-25%	-6%	-6%				Blood pressure, Δ% (Anaesthetized cat; 10.0 mg/kg (i.v.), (15')): -50%
CN(C1=NCCN1OCc1cccc[n+]1[O-])c1c(Cl)cccc1Cl [C, 2-[{[2-(2,6-Dichloro-N-methylanilino)-2-imidazolin-1-yl]oxy}methyl]pyridine 1-oxide]	26 mg/kg	none	+0.3%	+6.3%	+1.2%	-5.8%		-6%				+2.2%	+3.2%		Blood pressure, Δ% (Anaesthetized cat; 1.0 mg/kg (i.v.), (5')): -14%; Blood pressure, Δ% (Anaesthetized cat; 3.0 mg/kg (i.v.), (10')): -21%; Heart rate, Δ% (Anaesthetized cat; 3.0 mg/kg (i.v.), (10')): -22%; Blood pressure, Δ% (Anaesthetized cat; 10.0 mg/kg (i.v.), (10')): -21%; Heart rate, Δ% (Anaesthetized cat; 10.0 mg/kg (i.v.), (10')): -22%
[O-][n+]1ccccc1CON1CCNC1=Nc1c(Cl)cccc1Cl [Compound A, 2-([{2-[(2,6-Dichlorophenyl)imino]-1-imidazolidinyl}oxy]methyl)pyridine 1-oxide]	3.5 mg/kg	none	-0.2%	+15.2%	+0.3%	+3.3%	-5%	-5%	-10%	-5%	-29%	-3.1%	-9.6%	-10%	activity against an electrical stimulation of the dental pulp, relative to morphine [3]: three-times stronger activity than morphine; cancellation of analgesia with yohimbine (α-adrenergic receptor): can be cancelled out; Blood pressure, Δ% ([2]; 30.0 mg/kg (p.o.)): -10.5%; Heart rate, Δ% ([2]; 30.0 mg/kg (p.o.)): -3.6%; Blood pressure, Δ% ([2]; 100.0 mg/kg (p.o.)): 0%; Heart rate, Δ% ([2]; 100.0 mg/kg (p.o.)): 0%; cancellation of analgesia with naloxone (opiate receptor): not with the opiate receptor blocker naloxone; addictive activity ([4]; concluded from lack of morphine-antagonistic activity): absence of an addictive activity; morphine-antagonistic activity ([4]; in vivo): no morphine-antagonistic activity could be found
Cc1cc[n+]([O-])c(CON2CCNC2=Nc2c(Cl)cccc2Cl)c1 [D, 2-([{2-[(2,6-Dichlorophenyl)imino]-1-imidazolidinyl}oxy]methyl)-4-methylpyridin 1-oxide]	16 mg/kg	none	-7.0%	-10.0%	-10.2%	-7.5%			-22%	-27%		-12.6%	-13.3%		Blood pressure, Δ% (Anaesthetized cat; 1.0 mg/kg (i.v.), (3')): -22%
CC(ON1CCNC1=Nc1c(Cl)cccc1Cl)c1cc[n+]([O-])cc1 (centres unmarked) [E, 4-(1-[{2-[(2,6-Dichlorophenyl)imino]-1-imidazolidinyl}oxy]ethyl)pyridine1-oxide]	7.3 mg/kg	none			+10.2%	+4.0%	0%	0%	-4%	0%	-14%	-13.9%	-13.2%	-12%	Blood pressure, Δ% ([2]; 30.0 mg/kg (p.o.)): +2.4%; Heart rate, Δ% ([2]; 30.0 mg/kg (p.o.)): -9.9%
Cc1ccc(CON2CCNC2=Nc2c(Cl)cccc2Cl)[n+]([O-])c1 [F, 2-([{2-[(2,6-Dichlorophenyl)imino]-1-imidazolidinyl}oxy]methyl)-5-methylpyridin 1-oxide]	27 mg/kg	none	-9.6%	-4.9%	-10.4%	-5.5%	0%	0%	0%	0%	-10%			0%	
Cc1cccc(CON2CCNC2=Nc2c(Cl)cccc2Cl)[n+]1[O-] [G, 2-([{2-[(2,6-Dichlorophenyl)imino]-1-imidazolidinyl}oxy]methyl)-6-methylpyridin 1-oxide]	16 mg/kg	none					-4%	0%	-4%	-4%	-13%	-12.0%	-22.6%	-15%	
[O-][n+]1ccc(O)cc1CON1CCNC1=Nc1c(Cl)cccc1Cl [H, 2-([{2-[(2,6-Dichlorophenyl)imino]-1-imidazolidinyl}oxy]methyl)-4-pyridinol 1-oxide]	8.7 mg/kg	none					-12%	0%		-2%					Blood pressure, Δ% (Anaesthetized cat; 3.0 mg/kg (i.v.), (10')): -27%; Blood pressure, Δ% (Anaesthetized cat; 10.0 mg/kg (i.v.), (10')): -62%; Heart rate, Δ% (Anaesthetized cat; 10.0 mg/kg (i.v.), (10')): -18%
